Laboratory results taken from patent US20180228897A1, “Compositions for Vapor Phase Delivery of Active Compounds, Methods of Making and Using Same, and Kits Comprising Same” (Atmovita, LLC, priority 2015, published 2018).
Like-named read-outs stand apart in the source and are kept apart here. Peptide text beside a SMILES is read from it. * marks the point of attachment. PhAc = O=C(Cc1ccccc1)*

Experiments:
Assay type in all cases: physicochemical
[1] = Preparation of compositions (Example 3): appearance and stability of the solution
[2] = Increase in solubility of active compounds in the present compositions
Excerpt: It is advantageous to take measures to increase the solubility of an active compound or active compounds within a composition that includes components that serve as excipients such that true solubilization of the compound(s) occurs and the activity of the active compounds are retained upon transition to the vapor phase. The present disclosure is based on the result that the solubility of active compounds can be increased by surprising and unexpected amounts.

[3] = Folate solubility in glycerin/2,3 butane diol stock compositions with co-solutes (incremental addition, heat gun, stirring); conditions: organic solvent or mixture, thermodynamic from solid; stock/water/ethanol solvent
Method: Folate. Folate and biotin are the two most difficult to dissolve B vitamins. Folate solubility enhancement was provided by addition of beta-cyclodextrin.
The solubility enhancement from mannitol/biotin alone was tested next. […] This is major improvement over most polar solvents (0.0016 g/L of water at 25° C.).
First the mannitol/biotin powder was mixed with 0.004 g of folate. This was added to the test tube followed by the liquid. It was stirred vigorously. Then it was heated with a heat gun until clear and no folate was suspended. […] All the liquid was moved to another test tube and the precipitate remained. Then folate was incrementally added (about 1 mg) and the solution was stirred, followed by heating** until it became clear. It would take at least 3 minutes of heating for it to become clear but as more folate was added, at least 4 minutes of heating were needed. This is how the original solution was formed. Over the course of several days there was no further precipitate or increase in viscosity. ** all heating was done with the yellow heat gun on the lowest setting (240° F.)
While heating and stirring the lid popped off and 0.75 ml of solution spilled out. Even accounting for folate lost in the spill, currently at least 8 mg of folate have been dissolved in 2.75 ml and the solution is completely clear. Heating the solution caused the lid to pop so it must be removed after about 1 minute and 30 seconds of heating prior to any further heating. It is also crucial for the solution to have been flipped upside down, preferably while warm. The solution must not be heated while flipped as this may cause a spill.
The original solution still has less much viscosity but also a slightly lower concentration of folate. It appears that somewhere beyond 8 mg folate/[…] of solution it becomes supersaturated, resulting in a thick gel upon settling and cooling. […] As long as supersaturation followed by settling is avoided, the solution will remain liquid. Another option is to study the effect of precipitation inhibitors or the sonicator to further boost solubility without increasing viscosity.
Testing was also done with only stock, stock+water and stock+ethanol but having both water and ethanol is crucial to the process. […] Despite having separated the liquid from the precipitate which was nearly all biotin/mannitol, the powder still played a role in improving folate solubility. […] The following composition (3 ml stock+0.25 ml water+0.25 ml ethanol+0.009 g of biotin) dissolved 11.2 mg of folate but became extremely viscous.
According to research on drug solubility there is a class of molecules known as hydrotropes (also known as chaotropes, […]). They reduce hydrophobic forces between non-polar solutes in polar solvents. One such molecule is niacinamide (vitamin B3 amide). These hydrotropes are planar and are either very polar or have nonpolar and polar sides like surfactants but shorter. This experiment was repeated with niacinamide as a cosolute and with a combination of B3 amide and Biotin. The biotin and B3 amide were added along with 4 mg of folate (and crushed together) wet into dry to the solution. The remaining folate was added incrementally along with heating and stirring. […] (2.5 ml stock+0.5 ml water+0.5 ml ethanol+0.0221 g of B3 amide) dissolved approximately 11 mg of folate and a small amount of precipitate. (2.5 ml stock+0.5 ml water+0.5 ml ethanol+0.0221 g of B3 amide+0.090 g pure biotin) dissolved approximately 11.4 mg of folate without precipitate. Unfortunately both solutions were extremely viscous after a few days.
Eventually the B3 amide and biotin cosolute solution was prepared using “reverse stock” instead of regular with the goal of lowering viscosity. The reverse stock is a solution of 3:7 mol glycerin and 2,3 butane diol. Initially this made folate precipitate so additional glycerin was added to achieve a 1:1 mol ratio of glycerin to 2,3 butane diol.

[4] = Trans resveratrol solubility in stock with solvents and co-solutes (incremental addition, heat gun)
Method: The initial approach was to test non polar solvents and their effectiveness with ethanol. This included pure stock as a control, carvone, and combinations of those solvents with ethanol. The following solvents were prepared: Control—3.5 ml of pure stock, 1-1.75 ml of stock+1.75 ml of carvone+0.2 ml of 0.01 mol NaOH, 2-3.5 ml of pure carvone, 3-3 ml of stock+0.5 ml of ethanol, 4-3 ml of carvone+0.5 ml of ethanol.
Solution 1 became biphasic and cloudy. The control and solution 4 have approximately the same solubility of TR. […] Solvent was added until the TR was dissolved which occurred at 60 mg/ml of stock. This original solution was split into 5 test tubes of 1 ml each with about 0.06 g of TR.
The following solutions were made: 1—adding […] of carvone (equimolar with TR, 0.000263 mol of each) 2—adding 0.175 ml of ethanol 3-0.235 ml of carvone and 0.1 ml of ethanol. Solution 1 became cloudy because the carvone is immiscible with the stock. Several attempts to fix this were made using of ethanol and B3 amide as hydrotropes but it had no effect.
Next co-solutes were used along with the TR in stock solution. 0.000263 mol of the following were dissolved along with TR in 3 ml stock: 1-niacin, 2-caffeine, 3-gallic acid, 4-salicylic acid, 5-thiamine, 6-niacinamide, and 7-pantothenic acid. Two additional samples were prepared of 0.01 g biotin (8) and 0.04 g of -pyridoxine HCl (9). Each solution consisted of the stated amount of co-solute and 3 ml of stock. The following amounts of TR (which was added incrementally (30-40 mg) and heated for 3-4 minutes by heat gun) created the following:
To conduct further testing 0.5 ml of ethanol was added to the solutions with niacin, biotin, thiamine, and salicylic acid. The successful B3 amide solution was split into two solutions of (1.625 and 1.375 ml) with 0.25 ml of ethanol being added to the 1.375 ml solution. The results were as follows:
There was also testing with multiple solutes in 3 ml of stock:
Currently piperazine hexahydrate is being tested as it is another hydrotrope. […] It may work better with other co-solutes or ethanol.

[5] = 0.693 g L-arginine and 0.693 g l-theanine in 0.75 ml stock, 2.5 ml water, 0.25 ml flavored glycerin

C=C1CC[C@H](O)C/C1=C/C=C1\CCC[C@]2(C)[C@@H]([C@H](C)CCCC(C)C)CC[C@@H]12 [Vitamin D3]
appearance of composition ([1]; 5 mg Vitamin D3, 15 mg βcyclodextrin, 15 mg cinnamic acid, 15 mg ethyl vanillin in 2.5 ml stock+1.0 ml water, heated at 175° C.): clear solution with flavor
increase in solubility ([2]; in the present compositions, D3 with ß-propoxy cyclodextrin): 22,000%

cyanocobalamin [B12]
concentration of final translucent solution ([1]; water, 70% glycerin/30% 2,3 butane diol (v/v), 0.01M NaOH, 95% EtOH, room temperature): ~0.21 M
increase in solubility [2]: 600%

Cc1cc2nc3c(=O)[nH]c(=O)nc-3n(C[C@H](O)[C@H](O)[C@H](O)CO)c2cc1C [riboflavin]
appearance of composition ([1]; 18 mg riboflavin, 9.26 mg l-arginine in 1.5 ml stock and 2.0 ml of 0.1 mol Na2CO3): clear solution

O=C(O)CCCC[C@@H]1SC[C@@H]2NC(=O)N[C@@H]21 [biotin]
solubility [3]: ~3 mg/mL
increase in solubility [2]: comparable increases

CC(C)(CO)[C@@H](O)C(=O)NCCC(=O)O [Pantothenic Acid]
appearance of composition ([1]; 0.2 g vitamin B5 in 1.5 ml stock, 2.0 ml fruit flavored vodka, 0.1 ml flavored glycerin): clear and flavored solution

N=C(N)NCCC[C@H](N)C(=O)O [L-arginine]
appearance of composition [1, 5]: clear and flavored solution

CCNC(=O)CC[C@H](N)C(=O)O [l-theanine]
appearance of composition [1, 5]: clear and flavored solution

CCOC(=O)CNC(=O)[C@@H]1CCCN1C(=O)Cc1ccccc1 [noopept] (PhAc-Pro-Gly-OEt)
appearance of composition ([1]; 0.335 g noopept, 58 mg cinnamic acid in 2.0 ml stock, 2.0 ml ethanol, 0.1 ml flavored glycerin): clear and flavored solution

Oc1ccc(/C=C/c2cc(O)cc(O)c2)cc1 [TR, Trans-resveratrol]
appearance and stability of composition ([1]; 0.2 g trans resveratrol, 0.12 g nicotinamide, 0.08 g ethyl vanillin, 0.06 g cinnamic acid in 3.5 ml stock): clear and flavored solution that became unstable after two weeks and precipitated
amount of TR added ([4]; 0.000263 mol piperazine.6H2O in 1 ml stock): 0.0731 g
appearance of solution after a few days ([4]; 0.000263 mol piperazine.6H2O in 1 ml stock, 0.0731 g TR): the solution became dark and there was a small amount of precipitate
amount of TR dissolved ([4]; 0.0100 g B7+3.5 ml stock+0.5 ml ethanol): 0.2606 g
amount of TR dissolved ([4]; 0.0324 g B3+3.5 ml stock+0.5 ml ethanol): 0.2316 g
TR dissolved per ml ([4]; 0.048175 B3 amide+1.375+0.25 ml ethanol): 0.125 g TR/ml
TR dissolved per ml ([4]; 0.048175 B3 amide+1.625 ml): 0.125 g TR/ml
amount of TR dissolved ([4]; 0.0698 g B1+3.5 ml stock+0.5 ml ethanol): 0.2333 g
amount of TR added ([4]; 3 ml stock + 0.000263 mol caffeine (2)): 0.0131 g
amount of TR added ([4]; 3 ml stock + 0.000263 mol gallic acid (3)): 0.1784 g
amount of TR added ([4]; 3 ml stock + 0.000263 mol niacin (1)): 0.1776 g
amount of TR added ([4]; 3 ml stock + 0.000263 mol niacinamide (6)): 0.1738 g
amount of TR added ([4]; 3 ml stock + 0.000263 mol pantothenic acid (7)): 0.0131 g
amount of TR added ([4]; 3 ml stock + 0.000263 mol salicylic acid (4)): 0.1784 g
amount of TR added ([4]; 3 ml stock + 0.000263 mol thiamine (5)): 0.1808 g
amount of TR added ([4]; 3 ml stock + 0.01 g biotin (8)): 0.1733 g
amount of TR added ([4]; 3 ml stock + 0.04 g pyridoxine HCl (9)): 0.1859 g
appearance of solution ([4]; 3 ml stock + biotin (8), 0.1733 g TR): tiny amount of suspension
appearance of solution ([4]; 3 ml stock + caffeine (2), 0.0131 g TR): immediately precipitated
appearance of solution ([4]; 3 ml stock + gallic acid (3), 0.1784 g TR): clearly visible suspension and precipitate on bottom
appearance of solution ([4]; 3 ml stock + niacin (1), 0.1776 g TR): slight visible suspension of particles
appearance of solution ([4]; 3 ml stock + niacinamide (6), 0.1738 g TR): totally clear solution with low viscosity
appearance of solution ([4]; 3 ml stock + pantothenic acid (7), 0.0131 g TR): cloudy solution without precipitate
appearance of solution ([4]; 3 ml stock + pyridoxine HCl (9), 0.1859 g TR): clearly visible suspension with precipitate
appearance of solution ([4]; 3 ml stock + salicylic acid (4), 0.1784 g TR): small amount of suspension and precipitate are visible in solution
appearance of solution ([4]; 3 ml stock + thiamine (5), 0.1808 g TR): small amount of suspension and precipitate are visible in solution
amount of TR dissolved ([4]; 3 ml stock, 0.03175 g B3 amide+0.069 g B1+0.006352 g B7, footnote: immediately precipitate): 0.025 g
amount of TR dissolved ([4]; 3 ml stock, 0.0482 g B3 amide+0.03 g B1): 0.1844 g
amount of TR dissolved ([4]; 3 ml stock, 0.0482 g B3 amide+0.09 g B7, footnote: immediately precipitate): 0.025 g
solubility ([4]; glycerin/2,3 butane diol stock (70:30 mol), organic solvent or mixture, thermodynamic from solid, pure stock (70:30 mole glycerin:2,3 butane diol), read-out: solubility in stock): 60 mg/mL
solubility ([4]; organic solvent or mixture, thermodynamic from solid, flavored glycerin (with 2,3 butane diol added) instead of regular stock, read-out: solubility): 45 mg/mL
solubility ([4]; solution 2: 1 ml TR stock solution + 0.175 ml ethanol): 60 mg/mL
